The test system of assay [1] is G. vaginalis 14018. In words: Biofilm formation of G. vaginalis 14018 in polystyrene plates (CFU assay). Format: cell-based, Gardnerella vaginalis. To be noted: for effect on (proportional) biofilm formation, in words: G. vaginalis 14018, 24 hour biofilms, NYCIII media; for reduction of biofilm formation: G. vaginalis 14018, NYCIII media, anaerobic, 24 h, 0.2 wt %.
In assay [2] the test system is Gardnerella vaginalis 49145. In words: Biofilm formation of G. vaginalis 49145 (CFU assay). It is filed as cell-based.
The subject of assay [3] is G. vaginalis 14018. In words: Total growth of G. vaginalis 14018 (CFU assay). It is filed as cell-based, Gardnerella vaginalis. To be noted: for effect on total growth, in words: G. vaginalis 14018, NYCIII media (contains 1% glucose), soluble additive; for effect on growth in media without glucose, in words: G. vaginalis 14018, NYCIII media without glucose (data not shown); for suppression of growth: G. vaginalis 14018, glucose-rich NYCIII media, 0.2 wt % soluble monosaccharide.

The subject of assay [4] is Gardnerella vaginalis ATCC 14018 mature biofilms. Description: Disruption of established G. vaginalis biofilms (CFU of biofilm and supernatant fractions). It is filed as cell-based. To be noted: for viable cell counts in supernatant / biofilm fractions, in words: pre-established 24 h biofilms, 24 h treatment. Here is the method:
Gardnerella vaginalis 14018 ATCC strain was obtained from ATCC. Salivary MUC5B mucin was isolated and purified as described previously. Galactose and D-Fucose were obtained from Sigma-Aldrich. AnaeroPacks were purchased from VWR. Prior to the experiment, MUC5B mucin was weighed out and solubilized to desired concentration on a shaker overnight. To establish mature biofilms, an overnight preculture of Gardnerella vaginalis ATCC 14018 was diluted 1:20 into fresh NYC III medium with 1% glucose and incubated at 37° C. in the anaerobic chamber for 24 h. Before adding fresh solutions, a set of triplicate wells was sacrificed to quantify cell counts in supernatant and biofilm fraction at the 24 h timepoint. The spent supernatant was gently drained from the rest of the wells and fresh medium or mucin/monosaccharide solutions in medium were added on top of the bacterial biomass. Plate was gently rocked (100 rpm) for 24 h in the anaerobic atmosphere (generated with AnaeroPack, Mitsubishi in the airtight container) in the 37° C. incubator. After 24 h, the supernatant was removed into a separate plate and the biofilms were washed twice with […], sterile phosphate-buffer saline (PBS) and washes were combined with the supernatant (=supernatant fraction). Another […], of PBS was added to the biofilms, each well was vigorously scraped with P20 tip for 20 s and scraped biomass pipetted up and down to homogenize the solution (=biofilm fraction). Both supernatant and biofilm solutions were serially diluted, plated on BHI-agar (BHI=brain-heart infusion, 1.5% agar) and incubated in the anaerobic chamber 37° C. incubator. Colonies were counted after ˜48 h.

Assay [5] concerns Gardnerella vaginalis mature biofilms. In words: Minimum biofilm eradication assay with metronidazole. It is filed as cell-based. Particulars: 0.2 wt % monosaccharide with metronidazole concentration series, established biofilms, 24 h. Here is the method: Mature biofilms of Gardnerella vaginalis were established as described above. On a separate plate serial dilution of metronidazole alone or in combination with 0.2 wt % Gal/D-Fuc were prepared in NYC III 1% Glc medium. Negative controls (no metronidazole) were also included on the plate. After spent supernatant was drained from mature biofilms, 100 μL, of metronidazole/metronidazole-monosaccharide or negative controls solutions were added to the biofilms and plate was rocked (100 rpm) for 24 h in the anaerobic atmosphere (generated with AnaeroPack, Mitsubishi in the airtight container) in the 37° C. incubator. After 24 h incubation, the CFUs of supernatant and biofilm fractions were quantified as described in the biofilm disruption experiment.

The subject of assay [6] is Gardnerella vaginalis 49145. In words: Total growth of G. vaginalis 49145 (CFU assay). Format: cell-based. Particulars: G. vaginalis 49145, glucose-rich media.

Entries after “also recorded” stand apart in the source; their conditions may differ.

Regarding `CC(=O)N[C@H]1[C@H]([C@H](O)[C@H](O)CO)OC(O)(C(=O)O)C[C@@H]1O` (stereo partly drawn) [NeuNAc, N-acetyl D-neuraminic acid, reference compound], in the assay with G. vaginalis 14018 [1], the “effect on (proportional) biofilm formation, in words” value was “only galactose was able to reduce proportional biofilm formation”.
For the compound `C[C@H](O)[C@@H](O)[C@@H](O)[C@H](O)C=O` [L-Fuc, L-fucose, reference compound], the “effect on (proportional) biofilm formation, in words” value with G. vaginalis 14018 [1] is “only galactose was able to reduce proportional biofilm formation”.
As to `O=C[C@H](O)[C@@H](O)[C@@H](O)[C@H](O)CO` [galactose, D-galactose], the “effect on biofilm formation, in words” value in assay [2] is on record as “reduction of biofilm formation”. In the assay with G. vaginalis 14018 [3], the “effect on total growth, in words” value is “limited G. vaginalis growth in glucose-rich media; also recorded: reduced the overall growth”; the “effect on growth in media without glucose, in words” value is given as “did not diminish”; the suppression of growth came out at 90%. For the same compound, the “viable cell counts in supernatant / biofilm fractions, in words” value in assay [4] is “reduction in viable cells in both biofilm and supernatant fractions”. Besides, in assay [5], the “effect in combination with metronidazole on biofilm eradication, in words” value (“effect in combination with metronidazole” for short) was “potentiate the action of antibiotic metronidazole”. Also, the “effect in combination with metronidazole” value in assay [5] (listed as Gal) was “synergistic effect”. Further, in the assay with G. vaginalis 14018 [1], the “effect on (proportional) biofilm formation, in words” value is reported as “inhibit biofilm formation; also recorded: significantly reduced proportional biofilm formation” and the “reduction of biofilm formation” value stood at 85%.
Regarding `C[C@@H](O)[C@H](O)[C@H](O)[C@@H](O)C=O` [D-fucose, 6-deoxy-D-galactose], the “effect on total growth, in words” value is reported as “suppressed the growth” in assay [6] and “limited G. vaginalis growth in glucose-rich media; also recorded: reduced the overall growth” with G. vaginalis 14018 [3]. The “effect on biofilm formation, in words” value in assay [2] is given as “reduction of biofilm formation”. For the same compound, the “effect on growth in media without glucose, in words” value with G. vaginalis 14018 [3] is on record as “did not diminish”. The same compound displayed a suppression of growth in the assay with G. vaginalis 14018 [3] of 75%. Further, in assay [4], the “viable cell counts in supernatant / biofilm fractions, in words” value was “reduction in viable cells in both biofilm and supernatant fractions”. For the same compound, the “effect in combination with metronidazole” value in assay [5] (listed as D-Fuc) was “synergistic effect”; in assay [5] (listed as D-Fucose) it was “potentiate the action of antibiotic metronidazole”. The “effect on (proportional) biofilm formation, in words” value in the assay with G. vaginalis 14018 [1] is recorded as “inhibit biofilm formation”; with G. vaginalis 14018 [1] (listed as D-Fuc) it was “significantly reduced proportional biofilm formation”. Also, in the assay with G. vaginalis 14018 [1], the “reduction of biofilm formation” value is listed as 72%.
On to `CC(=O)N[C@H]1C(O)O[C@H](CO)[C@H](O)[C@@H]1O` (stereo partly drawn) [GalNAc, N-acetyl D-galactosamine, reference compound], for which the “effect on total growth, in words” value in the assay on G. vaginalis 14018 [3] is reported as “have no effect”. In addition, in the assay with G. vaginalis 14018 [1], the “effect on (proportional) biofilm formation, in words” value is on record as “only galactose was able to reduce proportional biofilm formation”.
Take “MUC5B: mucin glycoprotein, predominant in cervicovaginal fluid, purified from pooled human saliva and reconstituted into gels”: the “effect on biofilm formation, in words” value in assay [2] is on record as “reduction of biofilm formation”. Further, the “effect on total growth, in words” value in the assay on G. vaginalis 14018 [3] was “did not limit the growth of the bacteria; also recorded: did not have any detrimental impact”. Besides, in assay [4], the “viable cell counts in supernatant / biofilm fractions, in words” value is reported as “increase in the cell counts in the supernatant”. The “disruption of established biofilms, in words” value in assay [4] (pre-established biofilms) is listed as “disrupt established biofilms”. In the assay on G. vaginalis 14018 [1], the “effect on (proportional) biofilm formation, in words” value is “limited its biofilm formation, toxin production, and killing of endocervical cells; also recorded: reduces relative biofilm formation”; the “reduction of biofilm formation” value is 76%. In addition, the “effect on (proportional) biofilm formation, in words” value in the assay with G. vaginalis 14018 [1] (listed as mucin) is on record as “inhibit biofilm formation”.
For `CC(=O)N[C@H]1C(O)O[C@H](CO)[C@@H](O)[C@@H]1O` (stereo partly drawn) [GlcNAc, N-acetyl D-glucosamine, reference compound], the “effect on total growth, in words” value in the assay on G. vaginalis 14018 [3] is given as “have no effect”. The “effect on (proportional) biofilm formation, in words” value in the assay on G. vaginalis 14018 [1] is “only galactose was able to reduce proportional biofilm formation”.

(Values after patent US20230398178A1, “METHODS AND COMPOSITIONS FOR TREATING OR PREVENTING A VAGINAL INFECTION OF GARDNERELLA VAGINALIS” (Massachusetts Institute of Technology, priority 2022, published 2023).)
